Molecules are shown by their SMILES. Where only a bound is given, the exact number is not on record here.

The assay addresses α4β7 integrin (Homo sapiens (Human), UniProt P13612+P26010). Briefly: MAdCAM-1/α4β7 integrin binding inhibitory activity evaluation test in the presence of serum (2). The format is cell-based. The following applies: RPMI-8866 cells binding to mouse MAdCAM-1/Fc, same manner as Test (3), read-out: α4β7 Rank of activity with serum added. The essentials: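 Adhesion of human RPMI-8866 B cells (α4β7-expressing) to plate-bound recombinant mouse MAdCAM-1/Fc in DMEM binding buffer with 4 mM MnCl2 and 50% final human serum, 15–60 min at 30 °C. Bound cells quantified by LDH activity (A490) after lysis; IC50 relative to no-compound binding, duplicate.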

Sequence of α4β7 integrin (P13612 34-1032): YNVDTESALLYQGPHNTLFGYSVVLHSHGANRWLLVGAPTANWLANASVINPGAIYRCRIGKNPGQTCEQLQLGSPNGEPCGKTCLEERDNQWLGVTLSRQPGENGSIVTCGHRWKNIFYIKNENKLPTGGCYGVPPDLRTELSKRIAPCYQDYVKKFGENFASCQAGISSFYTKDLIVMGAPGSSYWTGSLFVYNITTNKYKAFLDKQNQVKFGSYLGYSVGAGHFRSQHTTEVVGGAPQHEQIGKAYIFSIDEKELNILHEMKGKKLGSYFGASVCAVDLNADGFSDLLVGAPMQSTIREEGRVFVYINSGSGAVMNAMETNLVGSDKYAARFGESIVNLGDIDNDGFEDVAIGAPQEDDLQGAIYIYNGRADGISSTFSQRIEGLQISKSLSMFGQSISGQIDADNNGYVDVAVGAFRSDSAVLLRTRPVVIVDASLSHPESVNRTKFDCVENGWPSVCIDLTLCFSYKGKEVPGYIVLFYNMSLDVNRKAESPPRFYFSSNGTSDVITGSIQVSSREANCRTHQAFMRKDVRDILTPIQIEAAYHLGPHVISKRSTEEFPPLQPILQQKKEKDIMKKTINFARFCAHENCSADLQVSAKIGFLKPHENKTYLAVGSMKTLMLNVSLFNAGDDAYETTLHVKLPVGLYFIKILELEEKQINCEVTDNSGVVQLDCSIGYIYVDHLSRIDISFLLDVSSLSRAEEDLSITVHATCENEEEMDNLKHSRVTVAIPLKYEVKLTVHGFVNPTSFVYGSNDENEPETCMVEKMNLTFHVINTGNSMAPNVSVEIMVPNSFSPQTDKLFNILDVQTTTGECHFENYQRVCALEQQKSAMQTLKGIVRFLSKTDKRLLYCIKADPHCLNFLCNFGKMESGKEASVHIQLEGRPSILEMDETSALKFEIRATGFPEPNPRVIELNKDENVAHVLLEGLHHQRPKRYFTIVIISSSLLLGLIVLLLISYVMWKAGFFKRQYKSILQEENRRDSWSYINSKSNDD
Sequence of α4β7 integrin (P26010 20-798): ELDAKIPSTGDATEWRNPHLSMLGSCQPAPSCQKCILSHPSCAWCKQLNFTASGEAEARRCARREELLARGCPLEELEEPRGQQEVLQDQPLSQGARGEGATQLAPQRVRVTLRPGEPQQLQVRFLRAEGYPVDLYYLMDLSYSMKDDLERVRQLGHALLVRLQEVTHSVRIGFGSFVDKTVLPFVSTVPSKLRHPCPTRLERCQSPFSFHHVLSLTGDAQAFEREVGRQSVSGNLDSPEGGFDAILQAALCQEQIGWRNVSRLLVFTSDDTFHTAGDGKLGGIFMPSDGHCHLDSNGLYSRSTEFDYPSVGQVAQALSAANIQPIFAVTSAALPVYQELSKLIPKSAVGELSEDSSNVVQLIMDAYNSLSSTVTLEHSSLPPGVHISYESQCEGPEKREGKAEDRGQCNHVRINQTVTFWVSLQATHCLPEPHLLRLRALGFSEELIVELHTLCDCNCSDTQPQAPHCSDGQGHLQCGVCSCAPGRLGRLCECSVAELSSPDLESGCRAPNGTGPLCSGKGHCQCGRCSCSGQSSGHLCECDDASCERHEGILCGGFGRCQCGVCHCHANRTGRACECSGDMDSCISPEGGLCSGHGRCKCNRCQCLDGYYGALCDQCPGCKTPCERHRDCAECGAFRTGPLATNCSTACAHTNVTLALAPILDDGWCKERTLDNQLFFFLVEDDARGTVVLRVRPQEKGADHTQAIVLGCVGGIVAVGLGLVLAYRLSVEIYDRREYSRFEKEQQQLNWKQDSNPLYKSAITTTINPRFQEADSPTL

Turning to `Cn1c(=O)n(-c2ccc(C[C@H](NC(=O)c3cc(F)c(NS(=O)(=O)c4ccc(-n5cncn5)cc4)cc3F)C(=O)O)cn2)c(=O)c2ccncc21` [Example 221, N-[2,5-Difluoro-4-({[4-(1H-1,2,4-triazol-1-yl)phenyl]sulfonyl}amino)benzoyl]-3-[6-(1-methyl-2,4-dioxo-1,4-dihydropyrido[3,4-d]pyrimidin-3(2H)-yl)pyridin-3-yl]-L-alanine], the IC50 fell in the range of 10 to 50 nM.

For the compound `Cn1c(=O)n(-c2ccc(C[C@H](NC(=O)c3cc(F)c(NS(=O)(=O)c4ccc(-c5ncccn5)cn4)cc3F)C(=O)O)nc2)c(=O)c2ccncc21` [Example 222, N-(2,5-Difluoro-4-{[(5-pyrimidin-2-ylpyridin-2-yl)sulfonyl]amino}benzoyl)-3-[5-(1-methyl-2,4-dioxo-1,4-dihydropyrido[3,4-d]pyrimidin-3(2H)-yl)pyridin-2-yl]-L-alanine], the IC50 is 50 to 200 nM.

As for `Cn1c(=O)n(-c2ccc(C[C@H](NC(=O)c3cc(F)c(NS(=O)(=O)c4ccc(C(=O)C5CC5)cc4)cc3F)C(=O)O)nc2)c(=O)c2ccncc21` [Example 223, N-[4-({[4-(Cyclopropylcarbonyl)phenyl]sulfonyl}amino)-2,5-difluorobenzoyl]-3-[5-(1-methyl-2,4-dioxo-1,4-dihydropyrido[3,4-d]pyrimidin-3(2H)-yl)pyridin-2-yl]-L-alanine], the IC50 fell in the range of 50 to 200 nM.

As for `Cn1c(=O)n(-c2ccc(C[C@H](NC(=O)c3cc(F)c(NS(=O)(=O)c4ccc(-n5cncn5)cc4)cc3F)C(=O)O)nc2)c(=O)c2ccncc21` [Example 224, N-[2,5-Difluoro-4-({[4-(1H-1,2,4-triazol-1-yl)phenyl]sulfonyl}amino)benzoyl]-3-[5-(1-methyl-2,4-dioxo-1,4-dihydropyrido[3,4-d]pyrimidin-3(2H)-yl)pyridin-2-yl]-L-alanine], the IC50 is 10 to 50 nM.

As for `Cn1c(=O)n(-c2ccc(C[C@H](NC(=O)c3cc(F)c(NS(=O)(=O)c4ccc(-n5cncn5)cc4)cc3F)C(=O)O)cc2)c(=O)c2ccncc21` [Example 225, N-[2,5-Difluoro-4-({[4-(1H-1,2,4-triazol-1-yl)phenyl]sulfonyl}amino)benzoyl]-4-(1-methyl-2,4-dioxo-1,4-dihydropyrido[3,4-d]pyrimidin-3(2H)-yl)-L-phenylalanine], the IC50 lay within 10 to 50 nM.

Regarding `Cn1c(=O)n(-c2ccc(C[C@H](NC(=O)c3cc(F)c(NS(=O)(=O)c4ccc(-n5ccnn5)cc4)cc3F)C(=O)O)nc2)c(=O)c2ccncc21` [Example 226, N-[2,5-Difluoro-4-({[4-(1H-1,2,3-triazol-1-yl)phenyl]sulfonyl}amino)benzoyl]-3-[5-(1-methyl-2,4-dioxo-1,4-dihydropyrido[3,4-d]pyrimidin-3(2H)-yl)pyridin-2-yl]-L-alanine], the IC50 was 10 to 50 nM.

In the case of `Cc1cc(-c2ccc(S(=O)(=O)Nc3cc(F)c(C(=O)N[C@@H](Cc4ccc(-n5c(=O)c6ccncc6n(C)c5=O)cn4)C(=O)O)cc3F)nc2)cc(C)n1` [Example 227, N-(4-{[(2′,6′-Dimethyl-3,4′-bipyridin-6-yl)sulfonyl]amino}-2,5-difluorobenzoyl)-3-[5-(1-methyl-2,4-dioxo-1,4-dihydropyrido[3,4-d]pyrimidin-3(2H)-yl)pyridin-2-yl]-L-alanine], the IC50 was in the range of 50 to 200 nM.

For the compound `COc1ncc(-c2ccc(S(=O)(=O)Nc3cc(F)c(C(=O)N[C@@H](Cc4ccc(-n5c(=O)c6ccncc6n(C)c5=O)cn4)C(=O)O)cc3F)cc2)cn1` [Example 228, N-[2,5-Difluoro-4-({[4-(2-methoxypyrimidin-5-yl)phenyl]sulfonyl}amino)benzoyl]-3-[5-(1-methyl-2,4-dioxo-1,4-dihydropyrido[3,4-d]pyrimidin-3(2H)-yl)pyridin-2-yl]-L-alanine], the IC50 was in the range of 50 to 200 nM.

Turning to `CCc1ncc(-c2ccc(S(=O)(=O)Nc3cc(F)c(C(=O)N[C@@H](Cc4ccc(-n5c(=O)c6ccncc6n(C)c5=O)cn4)C(=O)O)cc3F)cc2)cn1` [Example 229, N-[4-({[4-(2-Ethylpyrimidin-5-yl)phenyl]sulfonyl}amino)-2,5-difluorobenzoyl]-3-[5-(1-methyl-2,4-dioxo-1,4-dihydropyrido[3,4-d]pyrimidin-3(2H)-yl)pyridin-2-yl]-L-alanine], the IC50 was 50 to 200 nM.

Turning to `Cn1c(=O)n(-c2ccc(C[C@H](NC(=O)c3cc(F)c(NS(=O)(=O)c4ccc(-c5ncccn5)cn4)cc3F)C(=O)O)nc2)c(=O)c2ncccc21` [Example 230, N-(2,5-Difluoro-4-{[(5-pyrimidin-2-ylpyridin-2-yl)sulfonyl]amino}benzoyl)-3-[5-(1-methyl-2,4-dioxo-1,4-dihydropyrido[3,2-d]pyrimidin-3(2H)-yl)pyridin-2-yl]-L-alanine], the IC50 was 50 to 200 nM.

`CCOc1cc(-c2ncccn2)ccc1S(=O)(=O)Nc1cc(F)c(C(=O)N[C@@H](Cc2ccc(-n3c(=O)c4ccncc4n(C)c3=O)cn2)C(=O)O)c(F)c1` [Example 231, N-(4-{[(2-Ethoxy-4-pyrimidin-2-ylphenyl)sulfonyl]amino}-2,6-difluorobenzoyl)-3-[5-(1-methyl-2,4-dioxo-1,4-dihydropyrido[3,4-d]pyrimidin-3(2H)-yl)pyridin-2-yl]-L-alanine]: the IC50 was no more than 10 nM.

With `Cn1c(=O)n(-c2ccc(C[C@H](NC(=O)c3cc(F)c(NS(=O)(=O)c4ccc(-c5cnc(N6CCC6)nc5)cc4)cc3F)C(=O)O)nc2)c(=O)c2ccncc21` [Example 232, N-[4-({[4-(2-Azetidin-1-ylpyrimidin-5-yl)phenyl]sulfonyl}amino)-2,5-difluorobenzoyl]-3-[5-(1-methyl-2,4-dioxo-1,4-dihydropyrido[3,4-d]pyrimidin-3(2H)-yl)pyridin-2-yl]-L-alanine], the IC50 lay within 50 to 200 nM.

For the compound `Cn1c(=O)n(-c2ccc(C[C@H](NC(=O)c3cc(F)c(NS(=O)(=O)c4ccc5c(c4)C(=O)OC5)cc3F)C(=O)O)nc2)c(=O)c2ccncc21` [Example 233, N-(2,5-Difluoro-4-{[(3-oxo-1,3-dihydro-2-benzofuran-5-yl)sulfonyl]amino}benzoyl)-3-[5-(1-methyl-2,4-dioxo-1,4-dihydropyrido[3,4-d]pyrimidin-3(2H)-yl)pyridin-2-yl]-L-alanine], the IC50 fell in the range of 50 to 200 nM.

Turning to `Cc1cn(-c2ccc(S(=O)(=O)Nc3cc(F)c(C(=O)N[C@@H](Cc4ccc(-n5c(=O)c6ccncc6n(C)c5=O)cn4)C(=O)O)cc3F)cc2)nn1` [Example 234, N-[2,5-Difluoro-4-({[4-(4-methyl-1H-1,2,3-triazol-1-yl)phenyl]sulfonyl}amino)benzoyl]-3-[5-(1-methyl-2,4-dioxo-1,4-dihydropyrido[3,4-d]pyrimidin-3(2H)-yl)pyridin-2-yl]-L-alanine], the IC50 fell in the range of 10 to 50 nM.

With `Cn1c(=O)n(-c2ccc(C[C@H](NC(=O)c3cc(F)c(NS(=O)(=O)c4ccc(-c5cc(F)cc(F)c5)cc4)cc3F)C(=O)O)nc2)c(=O)c2ccncc21` [Example 235, N-(4-{[(3′,5′-Difluorobiphenyl-4-yl)sulfonyl]amino}-2,5-difluorobenzoyl)-3-[5-(1-methyl-2,4-dioxo-1,4-dihydropyrido[3,4-d]pyrimidin-3(2H)-yl)pyridin-2-yl]-L-alanine], the IC50 is greater than 200 nM.

Consider `CCc1ncc(-c2ccc(S(=O)(=O)Nc3cc(F)c(C(=O)N[C@@H](Cc4ccc(-n5c(=O)c6ccncc6n(C)c5=O)cn4)C(=O)O)cc3F)nc2)cn1` [Example 236, N-[4-({[5-(2-Ethylpyrimidin-5-yl)pyridin-2-yl]sulfonyl}amino)-2,5-difluorobenzoyl]-3-[5-(1-methyl-2,4-dioxo-1,4-dihydropyrido[3,4-d]pyrimidin-3(2H)-yl)pyridin-2-yl]-L-alanine], for which the IC50 is 10 to 50 nM.

Turning to `CCc1ncc(-c2ccc(S(=O)(=O)Nc3cc(F)c(C(=O)N[C@@H](Cc4ccc(-n5c(=O)c6ccncc6n(C)c5=O)cc4)C(=O)O)cc3F)cc2)cn1` [Example 237, N-[4-({[4-(2-Ethylpyrimidin-5-yl)phenyl]sulfonyl}amino)-2,5-difluorobenzoyl]-4-(1-methyl-2,4-dioxo-1,4-dihydropyrido[3,4-d]pyrimidin-3(2H)-yl)-L-phenylalanine], the IC50 lay within 10 to 50 nM.

On to `CCc1ncc(-c2ccc(S(=O)(=O)Nc3cc(F)c(C(=O)N[C@@H](Cc4ccc(-n5c(=O)c6ccncc6n(C)c5=O)nc4)C(=O)O)cc3F)cc2)cn1` [Example 238, N-[4-({[4-(2-Ethylpyrimidin-5-yl)phenyl]sulfonyl}amino)-2,5-difluorobenzoyl]-3-[6-(1-methyl-2,4-dioxo-1,4-dihydropyrido[3,4-d]pyrimidin-3(2H)-yl)pyridin-3-yl]-L-alanine], for which the IC50 was no more than 10 nM.

Values taken from patent publication US9533985B2, “Sulfonamide derivative and medicinal use thereof” (EA Pharma Co., Ltd., priority 2012, dated 2017).
